# Test results: patent US4206226A (priority 1978, dated 1980)
# Values joined by “and” are separate entries in the source; they are usually repeats but may differ in a detail not shown here. Equal entries are not always repeated.
# What was measured:
# [1] = Renal Toxicity Screening Protocol, toxicity compared to NSC-119875; assay type: in vivo; conditions: for Body Weight Loss / Clinical Chemistry - Blood Urea Nitrogen / Clinical Chemistry - Creatinine / Clinical Chemistry - Serum Glutamic Pyruvic Transaminase / Hematology - Hematocrit / Hematology - White Blood Cell / Histopathology - Gastrointestinal / Histopathology - Hematopoietic / Histopathology - Lymphatic / Histopathology - Renal: score relative to NSC119875; for TOTAL SCORE: sum of ten parameter scores
# P388 leukemia = assay: In vivo activity against P388 leukemia; set-up: species or system murine; conditions: Days 1,5,9,13, NSC-119875 6.7 mg/kg, NSC-271674 20.0 mg/kg
# Source text: (§1) Data are expressed as survival in days and as a percentage increase in […]
# CD8Fl mammary = assay: Panel of mouse tumors: CD8Fl mammary, tumor weight inhibition assay; assay type: in vivo; conditions: sc tumor, Q7DX5 ip
# Procedure: (§2) **Tumor weight inhibition assay.
# (§3) Data are expressed as a percentage of the survival time in days or the
# (§4) tumor weights in mg of the treated mice divided by the corresponding
# (§5) values for the control mice. All testing was performed using both platinu
# (§6) compounds in the same experiment. The criteria for activity are as
# (§7) follows: confirmed activity (activity from two separate laboratories) of
# (§8) % T/C of 150 or more for survival systems and 10% or less for tumor weigh
# (§9) inhibition assays. Lower levels of activity such as a % T/C of 125 for
# (§10) survival systems and 42% for tumor weight inhibition assays are considere
# (§11) statistically significant.
# L1210 cells = assay: In vitro growth inhibition of L1210 cells; assay type: cell-based, murine; conditions: growth inhibition by 50 percent
# Source text: (§12) The ID50 refers to the concentration of test compound required to
# (§13) inhibit the growth of either the L1210 or L1210/DDP (NSC119875) resistant
# Approximate LD50 = assay type: in vivo; conditions: mice
# murine leukemia L1210 = assay: Antileukemic activity in mice against murine leukemia L1210 (general statement); assay type: in vivo
# Source text: Some previous platinum chelate compounds show dosage limitation due to renal impairment but the free carboxyl of the present composition offers a possible route of oral […] and absorption by the stomach.
# B16 melanoma = assay: Panel of mouse tumors: B16 melanoma, survival time assay; assay type: in vivo; conditions: ip tumor, D1-9 ip
# Procedure: (§14) *Survival time (mean or median) assay
# as §2, §3, §4, §5, §6, §7, §8, §9, §10, §11
# L1210 leukemia [2] = assay: Delayed (Day 3) treatment of L1210 leukemia, compound singly and in combination regimen; assay type: in vivo, BDF1 mice; conditions: for >60 day survivors: Day 3
# Procedure: The compound in 1% NaHCO3 solution was tested against the L1210 leukemia in BDF1 mice [10^6 cells given to mice on Day 0, treatment (ip) on Day 1 only] in laboratory and the following % increases in life span (%ILS) were noted:
# The compound singly and in combination regimen
# When treatment was delayed until Day 3, 5 mg/kg gave 51% ILS, 42% ILS and 39% ILS in three experiments.
# L1210 leukemia [3] = assay: L1210 leukemia in BDF1 mice, treatment (ip) on Day 1 only, % increase in life span; assay type: in vivo
# Procedure: The compound in 1% NaHCO3 solution was tested against the L1210 leukemia in BDF1 mice [10^6 cells given to mice on Day 0, treatment (ip) on Day 1 only] in laboratory and the following % increases in life span (%ILS) were noted: […]
# L1210 leukemia [4] = assay: Second screener, L1210 leukemia, day 1, 5, 9 schedule; assay type: in vivo, mice; conditions: 6.25 mg/kg
# Source text: The compound was submitted to the Drug Development Branch of the National Cancer Institute and assigned NSC Number 271674. It was screened against the L1210 leukemia on a day 1, 5, 9 schedule and the following results were obtained:
# [5] = test system: L1210/DDP (NSC119875) resistant cells; assay: In vitro growth inhibition of L1210/DDP (NSC119875 resistant) cells; assay type: cell-based, murine; conditions: growth inhibition by 50 percent
# Source text: as §12, §13
# Colon #38 = assay: Panel of mouse tumors: Colon #38, tumor weight inhibition assay; assay type: in vivo; conditions: sc tumor, D2,9 ip
# Procedure: as §2, §3, §4, §5, §6, §7, §8, §9, §10, §11
# L1210 = assay: Panel of mouse tumors: L1210, survival time assay; assay type: in vivo; conditions: ip tumor, D1-9 ip
# Procedure: as §14, §3, §4, §5, §6, §7, §8, §9, §10, §11
# P388/DDP leukemia = assay: In vivo activity against P388/DDP leukemia with acquired resistance to NSC-119875; set-up: species or system murine
# Source text: P388/DDP refers to a tumor line with acquired resistance to NSC119875.
# as §1
# Lewis lung = assay: Panel of mouse tumors: Lewis lung, survival time assay; assay type: in vivo; conditions: iv tumor, D1-9 ip
# Procedure: as §14, §3, §4, §5, §6, §7, §8, §9, §10, §11
structure (smiles),measurement,setting,value
"N.N.O=C([O-])C1(C(=O)[O-])CCC1.[Pt+2] [NSC-241240, diamine[1,1cyclobutanedicarboxylato (2)-0,0']platinum]",Body Weight Loss,[1],1
same,Clinical Chemistry - Blood Urea Nitrogen,[1],1
same,Clinical Chemistry - Creatinine,[1],1
same,Clinical Chemistry - Serum Glutamic Pyruvic Transaminase,[1],3
same,Hematology - Hematocrit,[1],4
same,Hematology - White Blood Cell,[1],3
same,Histopathology - Gastrointestinal,[1],1
same,Histopathology - Hematopoietic,[1],5
same,Histopathology - Lymphatic,[1],1
same,Histopathology - Renal,[1],1
same,TOTAL SCORE,[1],21
"NC1CCCCC1N.O=S(=O)([O-])[O-].[Pt+2] (centres unmarked) [NSC-250427, sulfato(1,2diaminocyclohexane)platinum (II)]",Body Weight Loss,[1],2
same,Clinical Chemistry - Blood Urea Nitrogen,[1],1
same,Clinical Chemistry - Creatinine,[1],1
same,Clinical Chemistry - Serum Glutamic Pyruvic Transaminase,[1],5
same,Hematology - Hematocrit,[1],3
same,Hematology - White Blood Cell,[1],3
same,Histopathology - Gastrointestinal,[1],1
same,Histopathology - Hematopoietic,[1],4
same,Histopathology - Lymphatic,[1],2
same,Histopathology - Renal,[1],2
same,TOTAL SCORE,[1],24
"CC(C)N.CC(C)N.[Cl-].[Cl-].[OH-].[OH-].[Pt] [NSC-256927, bisisopropylamine-cis-dichloro-trans-dihydroxy platinum (IV)]",Body Weight Loss,[1],2
same,Clinical Chemistry - Blood Urea Nitrogen,[1],1
same,Clinical Chemistry - Creatinine,[1],1
same,Clinical Chemistry - Serum Glutamic Pyruvic Transaminase,[1],3
same,Hematology - Hematocrit,[1],4
same,Hematology - White Blood Cell,[1],3
same,Histopathology - Gastrointestinal,[1],1
same,Histopathology - Hematopoietic,[1],4
same,Histopathology - Lymphatic,[1],4
same,Histopathology - Renal,[1],2
same,TOTAL SCORE,[1],25
"N[C@@H]1CCCC[C@H]1N.O=C([O-])c1ccc(C(=O)[O-])c(C(=O)[O-])c1.[H+].[Pt+2] [NSC-271674, 4-Carboxyphthalato(1,2-diaminocyclohexane)platinum(II)]","% ILS, P388",P388 leukemia,56%
same,"Survival (Days), P388",P388 leukemia; control 13.3 days,20.7 days
same,% T/C (tumor weight),"CD8Fl mammary; first line, optimal dose (mg/kg/inj): NSC-119875 8, NSC-271674 6.25",11%
same,% T/C (tumor weight),"CD8Fl mammary; second line, optimal dose (mg/kg/inj): NSC-119875 8, NSC-271674 25",25%
same,ID50 L1210,L1210 cells,0.30 µg/mL
same,approximate LD50,Approximate LD50,~75 mg/kg
same,potentiation in a treatment with cyclophosphamide,murine leukemia L1210; CY 50 mg/kg,is potentiated
same,antileukemic activity,"murine leukemia L1210; mice, L1210",has shown antileukemic activity
same,effective dosages,"murine leukemia L1210; mice, L1210",5-60 mg/kg of body weight
same,% T/C (survival time),"B16 melanoma; first line, optimal dose (mg/kg/inj): NSC-119875 2, NSC-271674 6.25",171%
same,% T/C (survival time),"B16 melanoma; second line, optimal dose (mg/kg/inj): NSC-119875 1, NSC-271674 1.56",159%
same,% ILS,"L1210 leukemia [2]; 5 mg/kg alone, Day 3 treatment, three experiments",51% and 42% and 39%
same,>60 day survivors,L1210 leukemia [2]; 5 mg/kg with cyclophosphamide (50 mg/kg) and 5-fluorouracil (75 mg/kg),8 of 10
same,>60 day survivors,"L1210 leukemia [2]; 5 mg/kg with cyclophosphamide (50 mg/kg), two experiments",3 of 10 and no >60 day survivors
same,testing for renal toxicity,[1]; against NSC 119875,superior results
same,Body Weight Loss,[1],3
same,Clinical Chemistry - Blood Urea Nitrogen,[1],1
same,Clinical Chemistry - Creatinine,[1],1
same,Clinical Chemistry - Serum Glutamic Pyruvic Transaminase,[1],3
same,Hematology - Hematocrit,[1],3
same,Hematology - White Blood Cell,[1],3
same,Histopathology - Gastrointestinal,[1],1
same,Histopathology - Hematopoietic,[1],5
same,Histopathology - Lymphatic,[1],1
same,Histopathology - Renal,[1],2
same,TOTAL SCORE,[1],23
same,% increases in life span (% ILS),L1210 leukemia [3]; 5 mg/kg ip,70%
same,% increases in life span (% ILS),L1210 leukemia [3]; 10 mg/kg ip,118%
same,% increases in life span (% ILS),L1210 leukemia [3]; 20 mg/kg ip,119%
same,% increases in life span (% ILS),L1210 leukemia [3]; 25 mg/kg ip,139%
same,% increases in life span (% ILS),L1210 leukemia [3]; 40 mg/kg ip,232%
same,% increases in life span (% ILS),L1210 leukemia [3]; 50 mg/kg ip,288%
same,% increases in life span (% ILS),L1210 leukemia [3]; 60 mg/kg ip,174%
same,questionably toxic deaths,L1210 leukemia [4],2
same,ID50 L1210/DDP,[5],0.23 µg/mL
same,% T/C (tumor weight),"Colon #38; first line, optimal dose (mg/kg/inj): NSC-119875 8, NSC-271674 12.5",50%
same,% T/C (tumor weight),"Colon #38; second line, optimal dose (mg/kg/inj): NSC-119875 16, NSC-271674 50",33%
same,% T/C (survival time),"L1210; first line, optimal dose (mg/kg/inj): NSC-119875 2, NSC-271674 0.78",174%
same,% T/C (survival time),"L1210; second line, optimal dose (mg/kg/inj): NSC-119875 2, NSC-271674 1.56",325%
same,"% ILS, P388/DDP","P388/DDP leukemia; Days 1,5,9,13, NSC-119875 6.7 mg/kg, NSC-271674 20.0 mg/kg",201%
same,"Survival (Days), P388/DDP","P388/DDP leukemia; Days 1,5,9,13, NSC-119875 6.7 mg/kg, NSC-271674 20.0 mg/kg, control 11.0 days",33.3 days
same,activity against strains of murine leukemia wherein NSC 119875 has exhausted its activity,P388/DDP leukemia; murine leukemia strains,appears to be active
same,% T/C (survival time),"Lewis lung; first line, optimal dose (mg/kg/inj): NSC-119875 2, NSC-271674 3.12",122%
same,% T/C (survival time),"Lewis lung; second line, optimal dose (mg/kg/inj): NSC-119875 2, NSC-271674 6.25",127%
